Results from patent publication EP0556962A1, “Small peptide and pseudopeptide amides inhibiting the proliferation of small-cell and epithelial-cell lung cancer cells” (RICHTER GEDEON VEGYESZETI GYAR R.T., priority 1992, dated 1993).
Where a SMILES comes first, the peptide text is derived from it. [ ]: non-standard residue; d: D form. The star is where a group is joined. X2 = CC(C)C[C@@H](CN[C@@H](CC(C)C)C(N)=O)N*; X1 = O=C(Cc1ccc(O)cc1)*

System: BN receptors on the Swiss 3T3 mouse fibroblast cell line
Test: Test 1: displacement of [¹²⁵I-Tyr⁴]-BN from BN receptors on Swiss 3T3 cells
Format: binding
Settings: 1 nmol [¹²⁵I-Tyr⁴]-BN, 4 °C, 3 hours
Protocol: The biological investigation of the new compounds of the invention was carried out in four tests. The BN-antagonizing effect of the compounds in question was determined in Test 1, based on measuring the displacement of the labelled [¹²⁵I-Tyr⁴]-BN from the BN receptors being present on the Swiss 3T3 mouse fibroblast cells. Test 2 and Test 3 were used to study the inhibitory effect of the compounds of the invention on the proliferation and propagation of NCI-H69 small-cell lung cancer cells. The inhibitory effect of the compounds of the invention on non-small-cell lung cancer cells and epithelial-cell lung cancer cells was investigated in Test 4.
Study of the binding of target compounds to BN receptors on the Swiss 3T3 mouse fibroblast cell line
Swiss 3T3 mouse fibroblast cells were grown on tissue-cultivating plates containing 24 holes in a D-MEM culture medium containing FCS of 10 % until a confluent and resting state (3x10⁵ cell/hole). The cells were washed 3 times with 0.5 ml of D-MEM of pH 7.4 (containing 0.2 % of BSA and 24 mmol of HEPES, and cooled to 4 °C), i.e. incubation mixture, each. […] At the end of the reaction the cells were washed twice with the incubation mixture and then 3 times with PBS (pH = 7.4).
The washings were carried out with 750 µl volumes of the ice-cold liquids each. The cells were solubilized by adding 750 µl of 0.5 M sodium hydroxide solution, carried over into test-tubes by pipette and the radio-activity bound to the cells was measured. The grade of aspecific binding was determined in the presence of a high concentration (10⁻⁶ mol/l) of cold [Tyr⁴]-BN. The amount of the specifically bound, labelled hormone was expressed as the percentage of the maximum binding, i.e. the specific binding in the absence of the compounds to be tested, as shown in Table 1.

SMILES	Displacement as percentage of control net binding (1.18 µmol/l compound)	Displacement as percentage of control net binding (2.36 µmol/l compound)	Displacement as percentage of control net binding (4.71 µmol/l compound)	Displacement as percentage of control net binding (9.42 µmol/l compound)	Displacement as percentage of control net binding (18.8 µmol/l compound)	Displacement as percentage of control net binding (37.6 µmol/l compound)	Displacement as percentage of control net binding (75 µmol/l compound)
CC(C)C[C@@H](CN[C@@H](CC(C)C)C(N)=O)NC(=O)[C@@H](Cc1c[nH]c2ccccc12)NC(=O)[C@H](Cc1ccccc1)NC(=O)[C@@H](Cc1c[nH]c2ccccc12)NC(=O)Cc1ccc(O)cc1 [(1)]	105%	96%	99%	103%	106%	107%	105%
CC(C)C[C@@H](CN[C@@H](CC(C)C)C(N)=O)NC(=O)[C@@H](Cc1c[nH]c2ccccc12)NC(=O)[C@H](Cc1ccccc1)NC(=O)[C@@H](Cc1c[nH]c2ccccc12)NC(=O)[C@H](N)Cc1ccc(O)cc1 [(4)] (H-[dY][dW]F[dW]-X2)	85%	88%	79%	72%	61%	52%	45%
CC(C)C[C@H](NC(=O)[C@H](CC(C)C)NC(=O)[C@@H](Cc1c[nH]c2ccccc12)NC(=O)[C@H](Cc1ccccc1)NC(=O)[C@@H](Cc1c[nH]c2ccccc12)NC(=O)Cc1ccc(O)cc1)C(N)=O [(I), reference compound] (X1-[dW]F[dW]LL-NH2)	108%	98%	83%	55%	33%	18%	23%
